Measured values: patent US20090239860A1, “NOVEL BENZOFURAN DERIVATIVE, MEDICINAL COMPOSITION CONTAINING THE SAME, AND USES OF THESE” (priority 2004, published 2009)

molecular target: T1, human adenosine A2A receptor (Homo sapiens, UniProt P29274); test: Measurement of antagonistic action for human adenosine A2A receptor (inhibition of NECA-induced cAMP production in transfected CHO-K1 cells); assay type: cell-based; details: human adenosine A2A receptor-expressed CHO-K1 cells, Ki from IC50 and Km for NECA
T1 construct: expressed in transfected cells; host or cells: CHO-K1 (Chinese hamster ovary-K1), transient transfection with Lipofectamine 2000
Experimental: Measurement of Antagonistic Action for Human Adenosine A2a Receptor
1) Preparation of Human Adenosine A2a Receptor-Expressed Cells
When Chinese hamster ovary-K1 (CHO-K1) cells were grown to subconfluence, they were treated with trypsin and suspended in D-MEM/F-12 medium (Invitrogen) including 10% fetal bovine serum (Sankojunyaku). The expression vector of human adenosine A2A receptor prepared in OPTI-MEM I (Invitrogen) and the transfection reagent of Lipofectamine 2000 (Invitrogen) were added to the cell suspension, and those cells were inoculated in poly-D-lysine-coated 96-well plates (5×10^4 cells/well). After incubating the plates for 24-30 hours at 37° C. in a humidified atmosphere with 5% CO2, they were used for the subsequent assays.
2) Measurement of the Inhibitory Effect on Human Adenosine A2a Receptor Activity
A test compound was dissolved in dimethyl sulfoxide (DMSO) and the resulting solution was added to D-MEM/F-12 medium supplemented with 2.5 unit/mL adenosine deaminase (Carbiochem) and 30 μM rolipram (Sigma), a phosphodiesterase inhibitor to prepare a solution of the test compound. Adenosine deaminase was used for the inactivation of adenosine derived from the cells.
The human adenosine A2A-expressed cells inoculated in the 96-well plates were washed twice with 150 μL/well of D-MEM/F-12 medium and a 50-μL aliquot of the test compound solution was then added to each well of the plates. After incubating the cells for 10 minutes at 37° C. in a humidified atmosphere with 5% CO2, a 50-μL aliquot of 1.2 nM 5′-N-ethylcarboxyamideadenosine (NECA; Sigma) including 2.5 unit/mL adenosine deaminase and 30 μM rolipram was added to each well of the plates and incubated for 25 minutes at 37° C. in a humidified atmosphere with 5% CO2. Stopping the reaction and the subsequent measurement of cAMP were performed by use of a cAMP enzyme-linked immunosorbent assay kit (Applied Biosystem). The chemoluminescence was measured by a Microplate Luminometer TR717 (Applied Biosystem). The experiments were carried out in duplicate wells.
Inhibitory rate of a test compound for NECA-induced cAMP production was found by the following formula:
Inhibitory rate (%)=[1−{(cAMP level with a test compound and NECA)−(cAMP level without a test compound and NECA)}/{(cAMP level with NECA)−(cAMP level without a test compound and NECA)}]×100
Using a Km value for NECA found by the measurement in the same plate as that of test compounds, an inhibitory constant Ki was found by the following formula: […]

T1 sequence (P29274 whole entry): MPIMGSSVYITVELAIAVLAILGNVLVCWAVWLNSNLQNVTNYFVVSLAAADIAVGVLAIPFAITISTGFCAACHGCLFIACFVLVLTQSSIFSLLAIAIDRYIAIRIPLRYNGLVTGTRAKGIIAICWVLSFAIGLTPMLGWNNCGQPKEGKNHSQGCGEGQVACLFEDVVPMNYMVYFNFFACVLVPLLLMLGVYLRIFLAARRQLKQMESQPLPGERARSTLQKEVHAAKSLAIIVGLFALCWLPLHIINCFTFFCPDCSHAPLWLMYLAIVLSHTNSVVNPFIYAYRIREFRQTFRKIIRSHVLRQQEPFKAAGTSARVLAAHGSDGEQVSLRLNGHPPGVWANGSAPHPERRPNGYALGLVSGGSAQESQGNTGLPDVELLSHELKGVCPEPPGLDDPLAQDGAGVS

SMILES	Ki [nM]
COc1ccc2c(NC(=O)c3cccc(F)c3)c(C(N)=O)oc2c1 [Compound 1-15]	6.5
COc1ccc2c(NC(=O)c3ccc(F)cc3)c(C(N)=O)oc2c1 [Compound 1-16]	0.9
NC(=O)c1oc2c(F)cc(F)cc2c1NC(=O)c1ccco1 [Compound 1-109]	2.7
Cc1ccc(C(=O)Nc2c(C(N)=O)oc3c(F)cc(F)cc23)o1 [Compound 1-119]	1.9
CCc1ccc(C(=O)Nc2c(C(N)=O)oc3c(F)cc(F)cc23)o1 [Compound 1-125]	1.2
COCC(=O)Nc1c(C(N)=O)oc2cc(OC)ccc12 [Compound 1-141]	9.3
NC(=O)c1oc2cc(Cl)ccc2c1NC(=O)C1CC1 [Compound 1-153]	9.2
NC(=O)c1oc2c(Cl)cc(F)cc2c1NC(=O)C1CC1 [Compound 1-156]	9.8
COc1cc(F)cc2c(NC(=O)C3CC3)c(C(N)=O)oc12 [Compound 1-159]	3.3
COc1ccc(C(=O)Nc2c(C(N)=O)oc3c(OC)cc(F)cc23)cc1 [Compound 1-213]	2.1
NC(=O)c1oc2c(F)cc(F)cc2c1NC(=O)Cc1ccccc1 [Compound 1-249]	4.6
COc1ccc2c(NC(=O)c3cccc(CN4CCN(c5ccccc5)CC4)c3)c(C(N)=O)oc2c1 [Compound 2-1, 6-Methoxy-3-[3-(4-phenylpiperazin-1-ylmethyl)benzoylamino]-benzofuran-2-carboxamide]	8
COc1ccc2c(NC(=O)c3ccc(CSc4nccn4C)cc3)c(C(N)=O)oc2c1 [Compound 2-7]	8.6
NC(=O)c1oc2c(F)cc(F)cc2c1NC(=O)c1ccc(CN2CCN(Cc3ccccc3)CC2)o1 [Compound 2-129]	1.6
CC(C)(C)OC(=O)N1CCN(Cc2ccc(C(=O)Nc3c(C(N)=O)oc4c(F)cc(F)cc34)o2)CC1 [Compound 2-142, tert-butyl 4-[5-(2-carbamoyl-5,7-difluoro-benzofuran-3-ylcarbamoyl)furan-2-ylmethyl]piperazine-1-carboxylate]	2

Further compounds by falling Ki, results first:

Ki [nM]	SMILES
9.3	NC(=O)c1oc2ccc(Cl)cc2c1NC(=O)c1ccco1 [Compound 1-108]
8.5	NC(=O)c1oc2ccc(F)cc2c1NC(=O)C1CC1 [Compound 1-1, 3-Cyclopropanecarbonylamino-5-fluorobenzofuran-2-carboxamide]
8.1	NC(=O)c1oc2c(F)cc(F)cc2c1NC(=O)C1CC1 [Compound 1-155]
7	NC(=O)c1oc2c(F)cc(F)cc2c1NC(=O)C1CCC1 [Compound 1-161]
6.5	NC(=O)c1oc2cc(F)ccc2c1NC(=O)c1ccc2c(c1)OCO2 [Compound 1-91]
6.4	Cc1cccc(C(=O)Nc2c(C(N)=O)oc3ccc(F)cc23)c1 [Compound 1-36]
4.5	NC(=O)c1oc2cc(F)ccc2c1NC(=O)c1ccc(Oc2ccccc2)nc1 [Compound 1-138]
4.1	NC(=O)c1oc2ccc(Cl)cc2c1NC(=O)C1CC1 [Compound 1-2, 3-Cyclopropanecarbonylamino-5-chlorobenzofuran-2-carboxamide]
3.2	COc1ccc2c(NC(=O)c3ccc(-c4ccccc4)o3)c(C(N)=O)oc2c1 [Compound 1-133]
2.7	NC(=O)c1oc2ccc(F)cc2c1NC(=O)COc1ccc(Cl)cc1 [Compound 1-145]
2.2	NC(=O)c1oc2ccc(F)cc2c1NC(=O)COCc1ccccc1 [Compound 1-150]
2	NC(=O)c1oc2c(F)cc(F)cc2c1NC(=O)c1ccc(CN2CCN(Cc3ccc4c(c3)OCO4)CC2)o1 [Compound 2-138]
1.1	CC(O)c1ccc(C(=O)Nc2c(C(N)=O)oc3ccc(F)cc23)o1 (stereo not shown) [Compound 6-2, 5-Fluoro-3-[5-(1-hydroxyethyl)furan-2-carbonyl]-aminobenzofuran-2-carboxamide]
0.8	CCc1ccc(C(=O)Nc2c(C(N)=O)oc3ccc(F)cc23)o1 [Compound 1-121]
0.5	CN1CCN(C(=O)c2cccc(C(=O)Nc3c(C(N)=O)oc4c(F)cc(F)cc34)c2)CC1 [Compound 1-275]

test system: Haloperidol-induced catalepsy in rats; test: Haloperidol-induced catalepsy in rats (horizontal bar test); assay type: in vivo, rat; details: male rats; compound 10 mg/kg orally in PEG400 2 hours before measurement; 5 hours after 1 mg/kg i.p. haloperidol; maximum 180 seconds (control 180.0)
Experimental: Haloperidol-Induced Catalepsy in Rats
The effect of a compound on drug-induced catalepsy in rats was evaluated. Parkinson's disease is a movement disorder reflecting a decline in striatal dopamine due to the degeneration of dopaminergic neuron arising from the sbstantia nigra. When haloperidol, a blocker of dopamine D2 receptor is administered in rats, the drug induces catalepsy which is considered as one of the Parkinson's disease-like symptoms since haloperidol blocks the neurotransmission of dopaminergic neuron. Male rats (Crj: CD(SD)IGS, bodyweight: 210-260 g, Charles River Japan, Inc.) were used for the experiments. Three to five rats for each group were tested for catalepsy 5 hours after intraperitoneal administration of 1 mg/kg haloperidol (Serenace (registered mark); Dainippon Pharma), a dopamine D2 antagonist. Catalepsy was measured using the horizontal bar test (Morelli and Chiara, “Eur. J. Pharmacol.”, vol. 117, p. 179-185 (1985)). A compound (10 mg/kg) was dissolved in PEG400 and administered orally 2 hours prior to the measurement of catalepsy. PEG400 was also administered orally to the rats for the control group. The front feet of the rats were placed on a horizontal bar (3 mm in diameter) suspended 10-12 cm above a platform and their rear feet were placed on the platform. The degree of catalepsy produced in the rats was measured by how long it took for their front feet to remove themselves from the bar. A maximum of 180 seconds was allowed.

SMILES	Duration of catalepsy [s]
NC(=O)c1oc2ccc(Cl)cc2c1NC(=O)C1CC1 [Compound 1-2, 3-Cyclopropanecarbonylamino-5-chlorobenzofuran-2-carboxamide]	91.6
COc1ccc2c(NC(=O)c3ccc(F)cc3)c(C(N)=O)oc2c1 [Compound 1-16]	116.4
CCc1ccc(C(=O)Nc2c(C(N)=O)oc3ccc(F)cc23)o1 [Compound 1-121]	48.2
NC(=O)c1oc2c(F)cc(F)cc2c1NC(=O)C1CC1 [Compound 1-155]	38.3
